pEC50: −log10 of the molar value. Several values for one entry are separate records, joined by “and”; a condition that tells them apart may be missing. Equal values may be shown once.
What was measured:
[1] = tested on: T. b. brucei 427 bloodstream forms; assay: Resazurin-based T. b. brucei assay; format: cell-based; details: Trypanosoma brucei, 72 h, read-out: EC50 T. brucei
Protocol: Parasites strains adapted to culture in vitro were used. T. b. brucei Lister 427 bloodstream form parasites (information about the identity and genealogy of this strain is available at The Rockefeller University website) were grown in HMI-9 medium supplemented with 10% heat-inactivated fetal bovine serum (iFBS).
Cells in logarithmic phase of growth were added using a Multidrop dispenser (45 μL, 500 bloodstream T. b. brucei parasites per well) to 384-well Corning assay plates already containing 5 μL of each compound and controls, and incubated for 72 hours at 37°C. 10 μL of resazurin were added per well, and the plates were further incubated for 6 hours at 37°C. The final fluorescence was determined at 550–590 nm. Pentamidine at 40 nM and 0.0067% DMSO were used as […] growth controls, respectively.

[2] = tested on: T. cruzi Tulahuen C4 epimastigotes; assay: T. cruzi epimastigotes growth inhibition assay (resazurin); format: cell-based, Trypanosoma cruzi; details: 72 h; for EC30, epimastigotes / EC70, epimastigotes: from dose-response curve; for pEC50: Trypanosoma cruzi, TULAHUEN, Tulahuen C4, 72 h, resazurin
Protocol: (§1) The Trypanosoma cruzi Tulahuen strain used is a genetically modified strain that expresses the Escherichia coli β-galactosidase gene, lacZ [31]. It was kindly supplied by Marcel Kaiser (Swiss Tropical and Public Health Institute). The T. cruzi Tulahuen C4 strain was cultured in RPMI-1640 supplemented with 10% inactivated FBS (iFBS), 1.7 mM L-glutamine, 100 U/mL penicillin, and […] at 37°C and 5% CO2. L6 rat skeletal muscle cells were purchased from ATCC (reference CRL-1458) and used as host cells for infection with transgenic T. cruzi trypomastigotes. Epimastigotes were obtained by differentiation in LIT medium with 10% iFBS at 28°C from trypomastigote forms.
A resazurin-based assay was set up in 96-well microplates containing 10 μL of test compound at concentrations ranging from 0.39 to 200 μM and log phase parasites seeded at 2 × 10^5 cells per well in a final volume of 100 μL. Maximum DMSO percentage in the well was 0.2%. Positive and negative growth controls were included. Following 72 hour incubation at 28°C with orbital shaking, 10 μL of resazurin solution were added to each well and the plates were returned to the incubator for 4 hours. Resazurin reduction was correlated to cell viability by fluorescence measurement with excitation and emission wavelength bands centered at 550 and 590 nm, respectively, in a Tecan Infinite 200 microplate reader.

[3] = tested on: T. cruzi Tulahuen C4 trypomastigotes; assay: T. cruzi trypomastigote viability assay (resazurin fluorescence); format: cell-based, Trypanosoma cruzi; details: Tulahuen C4, 72 hours at 37°C
Protocol: Tulahuen T. cruzi trypomastigotes were recovered 6 days post infection from the supernatant of harvested infected L6 cells cultures after 3 hours at 37°C. 90 μL of parasite culture at a density of 5 × 10^6 cells in RPMI 1640 media were dispensed into 96 Nunc flat bottom assay plates containing 10 μL of each compound.
In the fluorescence assay, plates were incubated for 24 and 48 hours after which 10 μL of the resazurin solution were added to each well. Plates were further incubated for 24 hours and fluorescence was measured at 550/590 nm using a Tecan Infinite 200 microplate reader. […] Final maximal DMSO percentage in the well was 0.1% and compound concentrations ranged from 0.2 to 100 μM.

[4] = tested on: T. cruzi Tulahuen C4 intracellular amastigotes; assay: β-D-galactosidase transgenic T. cruzi assay (intracellular amastigotes in L6 cells, CPRG); format: cell-based; details: Trypanosoma cruzi; for inhibition at 0.00152588 µM / inhibition at 0.00305176 µM / inhibition at 0.00610352 µM / inhibition at 0.012207 µM / inhibition at 0.0244141 µM / inhibition at 0.0488281 µM / inhibition at 0.0976562 µM / inhibition at 0.195312 µM / inhibition at 0.390625 µM / inhibition at 0.78125 µM / inhibition at 1.5625 µM / inhibition at 3.125 µM / inhibition at 6.25 µM / inhibition at 12.5 µM / inhibition at 25 µM / inhibition at 50 µM: TULAHUEN, L6, T. cruzi amastigotes, 96-hour treatment, read-out: Growth inhibition (%) Average; for pEC50: Tulahuen C4 in L6 cells, 96 h, CPRG
Protocol: as §1
A Thermo Scientific Multidrop Combi dispenser was used to dispense 55 μL of T. cruzi infected L6 cells (2 ×10^3 cells per well) into 384-well Corning assay plates already containing 5 μL of each compound at concentrations ranging from 0.0015 to 50 μM and controls. The plates were incubated at 37°C for 96 hours upon which 15 μL of lysis buffer (0.5 mM CPRG, 0.5% NP40) were added to each well and further incubated for 4 hours in the dark. Absorbance at 585 nm was measured in a Perkin Elmer Envision plate reader.

[5] = tested on: human macrophage THP-1 cells; assay: Cytotoxicity in THP-1 macrophages (MTT); format: cell-based; details: for pEC50: Homo sapiens, THP-1, 72 h, MTT, read-out: EC50 THP-1
Protocol: Cellular toxicity of compounds in the human macrophage host TPH-1 cell line was determined using the colorimetric MTT-based assay as previously described.
THP-1 cells were seeded at 3 × 10^4 cells/well in 96-well plates and were differentiated to macrophages with 20 ng/ml of PMA treatment for 48 h followed by 24 h incubation in fresh medium. Strasseriolides were added at increasing concentrations up to 50 μM and cells were further incubated at 37°C for 72 h. 10 μL of MTT (5 mg/mL in PBS) were added to each well, and plates were incubated for an additional period of 8 h at 37°C. Formazan crystals were dissolved by adding 50 μL of 20% SDS and absorbance was read at 595 nm using a microplate reader.

T. cruzi epimastigotes = assay: FACS analysis of T. cruzi epimastigotes (cell cycle, size and complexity); format: cell-based, Trypanosoma cruzi; details: for Foward Scatter (FSC) - Geometric Mean, single experiment / Foward Scatter (FSC) - Geometric Mean, Average / size reduction with respect to untreated parasites: 72 h
Protocol: FACS analysis was used to study cell cycle progression and cellular parameters such as size and complexity. 5 × 10^6 T. cruzi epimastigotes were harvested by centrifugation at 1,000×g and 4°C after 72 hours of incubation in a 6-well plate in the presence and in absence of test compounds. Pellets of cells were washed with 5 mL of PBS and fixed in a solution of 70% ice-cold ethanol/PBS at -20°C overnight. Cells were then collected by centrifugation, washed with PBS and stained with 40 μg/mL of propidium iodide in PBS containing 10 μg/mL of RNase A at 37°C for 30 minutes. Fluorescence was monitored with a Becton Dickinson FACSCalibur using BD CellQuest Pro version 4.0.2 software with a total of 10,000 events acquired for each sample. The different cell populations as well as mean cellular parameters were determined by FlowJo software.

[6] = Trypanosoma cruzi, TULAHUEN, 72 h
[7] = 72-hour drug exposure, FACS with PI staining, EC30, average
[8] = 72-hour drug exposure, FACS with PI staining, EC30, single replicates
[9] = 72-hour drug exposure, FACS with PI staining, EC70, average
[10] = 72-hour drug exposure, FACS with PI staining, EC70, single replicates

C/C1=C\[C@H](C)[C@@H](O)C[C@@H](O)/C(C)=C/[C@H](C)C[C@@H](C)CC[C@@H]([C@@H](C)C(=O)O)OC(=O)[C@@H](C)C1 [Strasseriolide D, strasseriolide D]
pEC50 [1]: < 4.00 | EC30, epimastigotes [2]: 36 µM | EC70, epimastigotes [2]: 68 µM | pEC50 [2]: 4.37 | pEC50 [3, 6]: 5.47 | pEC50 [3]: 5.47 | inhibition at 0.00152588 µM [4]: 7.88% | inhibition at 0.00305176 µM [4]: 6.33% | inhibition at 0.00610352 µM [4]: 2.28% | inhibition at 0.012207 µM [4]: 4.26% | inhibition at 0.0244141 µM [4]: 4.84% | inhibition at 0.0488281 µM [4]: 2.75% | inhibition at 0.0976562 µM [4]: 2.22% | inhibition at 0.195312 µM [4]: 7.23% | inhibition at 0.390625 µM [4]: 4.8% | inhibition at 0.78125 µM [4]: 4.2% | inhibition at 1.5625 µM [4]: 8.54% | inhibition at 3.125 µM [4]: 21.2% | inhibition at 6.25 µM [4]: 66.1% | inhibition at 12.5 µM [4]: 100% | inhibition at 25 µM [4]: 112% | inhibition at 50 µM [4]: 113% | pEC50 [4]: 5.25 | Selectivity index intracellular L. donovani versus THP-1 cells [5]: > 37 | pEC50 [5]: < 3.30 | % Cells G1, Average (T. cruzi epimastigotes; [7]): 48.0485% | % Cells G2/M, Average (T. cruzi epimastigotes; [7]): 33.3241% | % Cells S, Average (T. cruzi epimastigotes; [7]): 15.9233% | % Cells post G2/M, Average (T. cruzi epimastigotes; [7]): 0.01106% | % Cells sub-G1, Average (T. cruzi epimastigotes; [7]): 2.693% | % Cells G1, individual replicates (T. cruzi epimastigotes; [8]): 50.4058% and 45.6911% | % Cells G2/M, individual replicates (T. cruzi epimastigotes; [8]): 32.7574% and 33.8908% | % Cells S, individual replicates (T. cruzi epimastigotes; [8]): 14.3321% and 17.5145% | % Cells post G2/M, individual replicates (T. cruzi epimastigotes; [8]): 0.6783% and -0.6562% | % Cells sub-G1, individual replicates (T. cruzi epimastigotes; [8]): 1.8263% and 3.56% | % Cells G1, Average (T. cruzi epimastigotes; [9]): 50.7294% | % Cells G2/M, Average (T. cruzi epimastigotes; [9]): 37.5216% | % Cells S, Average (T. cruzi epimastigotes; [9]): 12.1278% | % Cells sub-G1, Average (T. cruzi epimastigotes; [9]): 1.9646% | % Cells G1, individual replicates (T. cruzi epimastigotes; [10]): 49.2764% and 52.1825% | % Cells G2/M, individual replicates (T. cruzi epimastigotes; [10]): 34.0219% and 41.0212% | % Cells S, individual replicates (T. cruzi epimastigotes; [10]): 15.873% and 8.383% | % Cells post G2/M, individual replicates (T. cruzi epimastigotes; [10]): -1.15% and -3.537% | % Cells sub-G1, individual replicates (T. cruzi epimastigotes; [10]): 1.978% and 1.951% | Foward Scatter (FSC) - Geometric Mean, single experiment (T. cruzi epimastigotes; EC30): 81.9 and 80.4 | Foward Scatter (FSC) - Geometric Mean, Average (T. cruzi epimastigotes; EC30, control 96.65): 81.15 | Foward Scatter (FSC) - Geometric Mean, single experiment (T. cruzi epimastigotes; EC70): 77.8 and 72.2 | Foward Scatter (FSC) - Geometric Mean, Average (T. cruzi epimastigotes; EC70, control 96.65): 75 | size reduction with respect to untreated parasites (T. cruzi epimastigotes; at EC30): 16% | size reduction with respect to untreated parasites (T. cruzi epimastigotes; at EC70): 24%

C/C1=C\[C@H](C)C(=O)C[C@@H](O)/C(C)=C/[C@H](C)C[C@@H](C)CC[C@@H]([C@@H](C)C(=O)O)OC(=O)[C@@H](C)C1 [Strasseriolide C, strasseriolide C]
pEC50 [1]: 4.22 | EC30, epimastigotes [2]: 28 µM | EC70, epimastigotes [2]: 47 µM | pEC50 [2]: 4.49 | pEC50 [3, 6]: 5.42 | pEC50 [3]: 5.42 | inhibition at 0.00152588 µM [4]: 3.17% | inhibition at 0.00305176 µM [4]: 3.11% | inhibition at 0.00610352 µM [4]: 4.62% | inhibition at 0.012207 µM [4]: 9.25% | inhibition at 0.0244141 µM [4]: 4.92% | inhibition at 0.0488281 µM [4]: 5.95% | inhibition at 0.0976562 µM [4]: 2.24% | inhibition at 0.195312 µM [4]: 5.83% | inhibition at 0.390625 µM [4]: 4.94% | inhibition at 0.78125 µM [4]: 4.24% | inhibition at 1.5625 µM [4]: 15.3% | inhibition at 3.125 µM [4]: 61.8% | inhibition at 6.25 µM [4]: 96% | inhibition at 12.5 µM [4]: 110% | inhibition at 25 µM [4]: 112% | inhibition at 50 µM [4]: 115% | pEC50 [4]: 5.51 | Selectivity index intracellular L. donovani versus THP-1 cells [5]: 68 | pEC50 [5]: 3.35 | % Cells G1, Average (T. cruzi epimastigotes; [7]): 50.2633% | % Cells G2/M, Average (T. cruzi epimastigotes; [7]): 31.3463% | % Cells S, Average (T. cruzi epimastigotes; [7]): 16.5971% | % Cells sub-G1, Average (T. cruzi epimastigotes; [7]): 3.151% | % Cells G1, individual replicates (T. cruzi epimastigotes; [8]): 52.1473% and 48.3792% | % Cells G2/M, individual replicates (T. cruzi epimastigotes; [8]): 31.009% and 31.6835% | % Cells S, individual replicates (T. cruzi epimastigotes; [8]): 14.5117% and 18.6825% | % Cells post G2/M, individual replicates (T. cruzi epimastigotes; [8]): -0.5484% and -2.167% | % Cells sub-G1, individual replicates (T. cruzi epimastigotes; [8]): 2.8804% and 3.422% | % Cells G1, Average (T. cruzi epimastigotes; [9]): 52.4319% | % Cells G2/M, Average (T. cruzi epimastigotes; [9]): 31.1794% | % Cells S, Average (T. cruzi epimastigotes; [9]): 14.7538% | % Cells sub-G1, Average (T. cruzi epimastigotes; [9]): 3.07% | % Cells G1, individual replicates (T. cruzi epimastigotes; [10]): 54.5779% and 50.2858% | % Cells G2/M, individual replicates (T. cruzi epimastigotes; [10]): 30.5655% and 31.7933% | % Cells S, individual replicates (T. cruzi epimastigotes; [10]): 10.63% and 18.8776% | % Cells post G2/M, individual replicates (T. cruzi epimastigotes; [10]): -0.9732% and -1.896% | % Cells sub-G1, individual replicates (T. cruzi epimastigotes; [10]): 5.2% and 0.9392% | Foward Scatter (FSC) - Geometric Mean, single experiment (T. cruzi epimastigotes; EC30): 81.2 and 80.4 | Foward Scatter (FSC) - Geometric Mean, Average (T. cruzi epimastigotes; EC30, control 96.65): 80.8 | Foward Scatter (FSC) - Geometric Mean, single experiment (T. cruzi epimastigotes; EC70): 72.5 and 74.3 | Foward Scatter (FSC) - Geometric Mean, Average (T. cruzi epimastigotes; EC70, control 96.65): 73.4 | size reduction with respect to untreated parasites (T. cruzi epimastigotes; at EC30): 16% | size reduction with respect to untreated parasites (T. cruzi epimastigotes; at EC70): 22%
